Test results published in article PMC6934184, “Selective DNA-PKcs inhibition extends the therapeutic index of localized radiotherapy and chemotherapy” (The Journal of Clinical Investigation, 2019).

Biological target: T1, BMPR2 (Homo sapiens, UniProt Q13873)
T1 construct: purchased Thermo Fisher Scientific (Life Technologies) SelectScreen
Experiment: SelectScreen LanthaScreen
Format: binding
Conditions: 1 µM
How it was run: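 Percent values come from Thermo SelectScreen profiling of NU5455, combining activity and binding assays. CSF1R was run in Z'LYTE format at Km app ATP, and CAMK1 in Adapta format with ATP listed at 10.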

T1 sequence (Q13873 27-1038): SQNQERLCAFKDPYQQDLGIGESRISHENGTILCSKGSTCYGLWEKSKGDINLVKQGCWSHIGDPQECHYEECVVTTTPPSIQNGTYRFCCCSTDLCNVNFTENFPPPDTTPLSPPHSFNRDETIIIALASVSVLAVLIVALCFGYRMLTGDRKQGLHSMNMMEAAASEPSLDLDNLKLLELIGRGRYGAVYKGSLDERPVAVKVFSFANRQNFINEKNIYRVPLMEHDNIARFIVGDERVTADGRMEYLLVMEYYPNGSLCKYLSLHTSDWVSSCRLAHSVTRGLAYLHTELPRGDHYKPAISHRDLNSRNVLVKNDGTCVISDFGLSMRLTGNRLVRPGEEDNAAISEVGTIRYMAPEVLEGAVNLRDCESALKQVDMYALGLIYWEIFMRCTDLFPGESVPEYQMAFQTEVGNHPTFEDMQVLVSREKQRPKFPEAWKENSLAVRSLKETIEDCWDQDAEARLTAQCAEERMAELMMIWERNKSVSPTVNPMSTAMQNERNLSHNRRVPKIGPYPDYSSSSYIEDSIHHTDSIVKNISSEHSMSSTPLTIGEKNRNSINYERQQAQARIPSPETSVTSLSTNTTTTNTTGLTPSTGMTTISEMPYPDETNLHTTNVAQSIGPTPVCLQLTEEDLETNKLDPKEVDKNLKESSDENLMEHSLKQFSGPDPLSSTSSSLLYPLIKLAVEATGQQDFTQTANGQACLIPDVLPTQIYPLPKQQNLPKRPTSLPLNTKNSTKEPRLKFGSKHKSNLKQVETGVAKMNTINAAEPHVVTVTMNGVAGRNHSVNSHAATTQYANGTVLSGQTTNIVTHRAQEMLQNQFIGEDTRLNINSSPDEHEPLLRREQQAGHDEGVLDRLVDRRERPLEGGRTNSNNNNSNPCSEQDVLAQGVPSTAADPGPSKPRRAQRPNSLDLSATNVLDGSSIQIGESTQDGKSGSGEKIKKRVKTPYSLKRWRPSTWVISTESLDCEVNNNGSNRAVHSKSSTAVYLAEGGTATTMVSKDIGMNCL

CN(C(=O)CN1CCOCC1)c1ccc2sc3c(-c4cccc5c(=O)cc(N6CC7CCC(C6)O7)oc45)cccc3c2c1 [NU5455]
% displacement: -2.5%
